The record followed here is patent publication US20260068886A1, “COMPOSITIONS AND METHODS FOR TARGETED INHIBITION AND DEGRADATION OF PROTEINS IN AN INSECT CELL” (Oerth Bio LLC, priority 2022, published 2026).

For one experiment, the system named is FKBP-GFP. As to the kind of experiment: sfVHL mediated FKBP degradation in Sf9 cells expressing FKBP-GFP-P2A-RFP (fluorescence microscopy). In kind it is cell-based. As for the experimental part: FIG. 2 presents graphs showing the FKBP-GFP to RFP signal ratio when treated with dTAG-V1 (dose curve) and Bortezomib (1 or 10 μM).
FIG. 3 presents microscopy images showing the data plotted in the graphs of FIG. 2. The images are of dTAG-V1 treated Sf9 cells expressing FKBP-GFP-P2A-RFP observed in Brightfield, green fluorescent protein and red fluorescent protein excitation wavelengths.
Sf9 cells were seeded into individual wells of 6-well sterile tissue culture plates (2×10^6 cells per well) with 2 mL fresh Sf900 III serum-free medium prior to the assay. The Sf9 cells were transfected with a plasmid expressing FKBP-GFP-P2A-RFP. Plasmid construct (in TE buffer) was aliquoted into a sterile Eppendorf microcentrifuge tube, with fresh sSf900 III medium added to each Plasmid. Cellfectin II reagent (Life Technologies, Carlsbad, CA) was then added to the transfection mixture, and the tubes were inverted to mix and incubated at room temperature for 30 minutes. All media was removed from each well just prior to the addition of the transfection mixture. Complete transfection mixtures were added to cells dropwise using a P1000 pipette with sterile filter tips. Cells overlayed with transfection mixtures were incubated at 27° C. for 4 hours. Following 4 hours of incubation time, transfection mixtures were removed and replaced with 2 mL of fresh complete medium per well (Sf900 III). Cells were allowed to incubate at 27° C. for 96 hours to allow expression from the transfected plasmid. After construct expression, cells are harvested for further experiments. Cells were detached using a P1000 pipette with sterile filter tips. Cells were resuspended in fresh Sf900 III medium. Transfected Sf9 cells were seeded into individual wells of 96-well sterile tissue culture plates (1×10^6 cells per well) with 0.1 mL fresh Sf900 III serum-free medium. Cells were then supplemented with a 10× stock of the indicated compounds (dTAGV1, dTAG-V1-NEG, Bortezomib). Protein levels were finally analyzed using Carl Zeiss microscopy and FIJI image analysis.

The test system of experiment [1] is MBP-FKBP-Hibit-His6 / sfVHL:sfElonginB/C+CUL2/RBX1. As to the kind of experiment: in vitro ubiquitination of MBP-FKBP-Hibit-His6 by sfVHL mediated by dTAGV-1 (Western blot, anti-His6). To be noted: sfVHL:sfElonginB/C + human CUL2/RBX1, E1, E2, ATP, ubiquitin; range of concentrations; room temperature. The format is biochemical. The text has this:
Lanes 1-4 and 5-8 are replicates of dose dependent dTAGV-1 dependent ubiquitination of MBP-FKBP-HIbit by sfVHL in vitro. In vitro ubiquitination is sfVHL dependent. No ubiquitination of MBP-FKBP-Hibit is observed in the absence of sfVHL (Lanes 9-16).
To assess the ability of sfVHL to act as a CUL2 adaptor protein en route to ubiquitination, sfVHL was expressed and purified recombinantly from E. coli as a complex with sfElonginB and C. […] The intensity and number of resolved bands observed, each indicating a distinct ubiquitination pattern of MBP-FKBP-Hibit-His6, was dependent on the dTAGV-1 concentration in the preparation. […] Further, ubiquitination as indicated by the complex band pattern above the MBP-FKBP-Hibit-His6 protein, was only observed when sfVHL:sfElonginB/C+CUL2/RBX1 was present confirming that the observed ubiquitination is PROTAC and sfVHL:sfElonginB/D+CUL2/RBX1 complex dependent.
To assess the ability of sfVHL to act as a CUL2 adaptor protein en route to ubiquitination, sfVHL was expressed and purified recombinantly from E. coli as a complex with sfElonginB and C. […] Further, ubiquitination was only observed when sfVHL:sfElonginB/C+CUL2/RBX1 was present confirming that MBP-FKBP-Hibit-His6 ubiquitination is PROTAC and sfVHL:sfElonginB/D+CUL2/RBX1 complex dependent.
Background: Immunoblotting shows a protein as a band on a membrane.

Entries after “also recorded” stand apart in the source; their conditions may differ.

`CC(C)C[C@H](NC(=O)[C@H](Cc1ccccc1)NC(=O)c1cnccn1)B(O)O` [bortezomib, Bortezomib]: the “effect on dTAG-V1 dependent reduction of GFP signal” value in the experiment with FKBP-GFP (added together with dTAG-V1 (1 or 10 μM)) is “prevents the dTAG-V1 dependent reduction of GFP signal”.

Regarding `CC[C@H](C(=O)N1CCCC[C@H]1C(=O)O[C@H](CCc1ccc(OC)c(OC)c1)c1ccccc1OCC(=O)NCCCCCCC(=O)N[C@H](C(=O)N1C[C@@H](O)C[C@@H]1C(=O)N[C@@H](C)c1ccc(-c2scnc2C)cc1)C(C)(C)C)c1cc(OC)c(OC)c(OC)c1` [dTAG-V1-NEG], the “GFP fluorescence (FKBP-GFP)” value in the experiment with FKBP-GFP (24 hours of incubation) is listed as “no decrease in green fluorescent protein is observed”.

In the case of `CC[C@H](C(=O)N1CCCC[C@H]1C(=O)O[C@H](CCc1ccc(OC)c(OC)c1)c1ccccc1OCC(=O)NCCCCCCC(=O)N[C@H](C(=O)N1C[C@H](O)C[C@H]1C(=O)N[C@@H](C)c1ccc(-c2scnc2C)cc1)C(C)(C)C)c1cc(OC)c(OC)c(OC)c1` [dTAG-V1], in the experiment on FKBP-GFP (24 hours of incubation), the “GFP fluorescence (FKBP-GFP)” value was “significantly decreased”, the RFP signal result is listed as “remains unchanged” and the “concentration of optimal decrease of GFP fluorescence” value is recorded as ~100 nM.

With `CC[C@H](C(=O)N1CCCC[C@H]1C(=O)O[C@H](CCc1ccc(OC)c(OC)c1)c1ccccc1OCC(=O)NCCCCCCC(=O)N[C@H](C(=O)N1C[C@H](O)C[C@H]1C(=O)N[C@@H](C)c1ccc(-c2scnc2C)cc1)C(C)(C)C)c1cc(OC)c(OC)c(OC)c1` [dTAGV-1], the “ubiquitination of MBP-FKBP-Hibit-His6” value in experiment [1] is “PROTAC mediated mono- and poly-ubiquitination of the protein; also recorded: observed in the presence of dTAGV-1 in a dose dependent manner; also recorded: FKBP substrate is ubiquitinated in vitro”.
